According to ChEMBL document CHEMBL4425153, “Matched and mixed cap derivatives in the tetracyclic indole class of HCV NS5A inhibitors” (Bioorg Med Chem Lett, 2016):
Numbering of substitutions follows the chain as printed.

Columns and labels:
[1] = biological target: T1, Nonstructural protein 5A (Hepatitis C virus) (UniProt Q5L478); assay: Inhibition of wild type HCV genotype 1a NS5A assessed as reduction in viral RNA level by cell based real time PCR method; settings: Hepatitis C virus subtype 1a
T1 sequence (whole entry): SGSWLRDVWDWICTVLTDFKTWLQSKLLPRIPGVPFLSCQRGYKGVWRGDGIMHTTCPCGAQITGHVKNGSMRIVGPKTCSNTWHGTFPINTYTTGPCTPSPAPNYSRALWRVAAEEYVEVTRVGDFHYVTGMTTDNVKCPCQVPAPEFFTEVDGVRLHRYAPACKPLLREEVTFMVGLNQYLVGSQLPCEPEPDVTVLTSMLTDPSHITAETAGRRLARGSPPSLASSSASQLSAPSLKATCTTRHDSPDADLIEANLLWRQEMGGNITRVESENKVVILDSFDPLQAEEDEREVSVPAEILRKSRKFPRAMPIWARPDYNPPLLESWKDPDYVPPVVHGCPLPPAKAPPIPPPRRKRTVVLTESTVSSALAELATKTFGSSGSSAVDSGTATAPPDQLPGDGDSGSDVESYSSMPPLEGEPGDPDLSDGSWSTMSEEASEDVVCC

[2] = system: T2, Nonstructural protein 5A (Hepatitis C virus), Q5L478 [Y93H]; assay: Inhibition of HCV genotype 1a NS5A Y93H mutant assessed as reduction in viral RNA level by cell based real time PCR method; settings: Hepatitis C virus subtype 1a
T2 sequence (whole entry): T1 sequence (whole entry) with Y93H

[3] = system: Nonstructural protein 5A (Hepatitis C virus), Q5L478 [UNDEFINED MUTATION]; assay: Inhibition of HCV genotype 1a NS5A L31V mutant assessed as reduction in viral RNA level by cell based real time PCR method; settings: Hepatitis C virus subtype 1a
[4] = biological target: T1, Nonstructural protein 5A (Hepatitis C virus); assay: Inhibition of wild type HCV genotype 2b NS5A assessed as reduction in viral RNA level by cell based real time PCR method; settings: Hepatitis C virus subtype 2b

| Structure (SMILES) | EC90 [1] [nM] | EC90 [2] [nM] | EC90 [3] [nM] | EC90 [4] [nM] |
| --- | --- | --- | --- | --- |
| COC(=O)N[C@H](C(=O)N1CCC[C@H]1c1ncc(-c2ccc3c(c2)O[C@@H](c2ccccc2)n2c-3cc3cc(-c4cnc([C@@H]5CCCN5C(=O)[C@@H](NC(=O)OC)C5CCCC5)[nH]4)ccc32)[nH]1)C1CCCC1 | 0.014 | > 100 | 4.1 | 52 |
| O=C([C@@H](c1ccccc1)N1CCCC1)N1CCC[C@H]1c1ncc(-c2ccc3c(c2)O[C@@H](c2ccccc2)n2c-3cc3cc(-c4cnc([C@@H]5CCCN5C(=O)[C@@H](c5ccccc5)N5CCCC5)[nH]4)ccc32)[nH]1 | 3.9 | > 100 | 3.9 | 13 |
| COC(=O)N[C@H](C(=O)N1CCC[C@H]1c1ncc(-c2ccc3c(c2)O[C@@H](c2ccccc2)n2c-3cc3cc(-c4cnc([C@@H]5CCCN5C(=O)[C@@H](NC(=O)OC)[C@@H](C)O)[nH]4)ccc32)[nH]1)[C@@H](C)O | > 1 | > 100 | > 100 | > 100 |
| COC(=O)N[C@H](C(=O)N1CCC[C@H]1c1ncc(-c2ccc3c(c2)cc2n3[C@H](c3ccccc3)Oc3cc(-c4cnc([C@@H]5CCCN5C(=O)[C@@H](NC(=O)OC)[C@@H](C)OC)[nH]4)ccc3-2)[nH]1)C(C)C | 0.062 | 50 | 1.1 | 5 |
| CN(C)[C@@H](C(=O)N1CCC[C@H]1c1ncc(-c2ccc3c(c2)O[C@@H](c2ccccc2)n2c-3cc3cc(-c4cnc([C@@H]5CCCN5C(=O)[C@@H](c5ccc(F)cc5)N(C)C)[nH]4)ccc32)[nH]1)c1ccc(F)cc1 | 0.98 | > 100 | > 100 | > 100 |
| COC(=O)N[C@H](C(=O)N1CCC[C@H]1c1ncc(-c2ccc3c(c2)O[C@@H](c2ccccc2)n2c-3cc3cc(-c4cnc([C@@H]5CCCN5C(=O)[C@@H](NC(=O)OC)C5CCC(F)(F)CC5)[nH]4)ccc32)[nH]1)C1CCC(F)(F)CC1 | 0.03 | 39 | 0.65 | 77 |
| COC(=O)N[C@H](C(=O)N1CCC[C@H]1c1ncc(-c2ccc3c(c2)O[C@@H](c2ccccc2)n2c-3cc3cc(-c4cnc([C@@H]5CCCN5C(=O)C5(NC(=O)OC)CCCCC5)[nH]4)ccc32)[nH]1)C(C)C | 0.035 | > 100 | 14.7 | > 100 |
| COC(=O)N[C@H](C(=O)N1CCC[C@H]1c1ncc(-c2ccc3c(c2)O[C@@H](c2ccccc2)n2c-3cc3cc(-c4cnc([C@@H]5CCCN5C(=O)[C@@H](NC(=O)OC)[C@@H](C)OC)[nH]4)ccc32)[nH]1)[C@@H](C)OC | 0.019 | > 100 | – | 17 |
| COC(=O)N[C@H](C(=O)N1CCC[C@H]1c1ncc(-c2ccc3c(c2)O[C@@H](c2ccccc2)n2c-3cc3cc(-c4cnc([C@@H]5CCCN5C(=O)[C@@H](NC(=O)OC)C5CCC(F)(F)CC5)[nH]4)ccc32)[nH]1)C(C)C | 0.018 | 34 | 0.89 | 23 |
| COC(=O)N[C@@H](C(=O)N1CCC[C@H]1c1ncc(-c2ccc3c(c2)O[C@@H](c2ccccc2)n2c-3cc3cc(-c4cnc([C@@H]5CCCN5C(=O)[C@H](NC(=O)OC)C5CCOCC5)[nH]4)ccc32)[nH]1)C1CCOCC1 | 8.6 | > 100 | > 100 | > 100 |
| CC[C@H](C)[C@H](NC(=O)OC)C(=O)N1CCC[C@H]1c1ncc(-c2ccc3c(c2)O[C@@H](c2ccccc2)n2c-3cc3cc(-c4cnc([C@@H]5CCCN5C(=O)[C@@H](NC(=O)OC)C(C)C)[nH]4)ccc32)[nH]1 | 0.06 | 77 | 4.3 | 50 |
| COC(=O)N[C@@H](CC1CCOCC1)C(=O)N1CCC[C@H]1c1ncc(-c2ccc3c(c2)cc2n3[C@H](c3ccccc3)Oc3cc(-c4cnc([C@@H]5CCCN5C(=O)[C@@H](NC(=O)OC)C(C)C)[nH]4)ccc3-2)[nH]1 | 0.014 | 24 | 0.33 | 8.9 |
| COC(=O)N[C@H](C(=O)N1CCC[C@H]1c1nc(-c2ccc3c(c2)O[C@@H](c2ccccc2)n2c-3cc3cc(-c4c[nH]c([C@@H]5CCCN5C(=O)[C@@H](NC(=O)OC)C(C)C)n4)ccc32)c[nH]1)C(C)C | 0.006 | 28 | 1 | 11 |
| CN(C)[C@@H](C(=O)N1CCC[C@H]1c1ncc(-c2ccc3c(c2)O[C@@H](c2ccccc2)n2c-3cc3cc(-c4cnc([C@@H]5CCCN5C(=O)[C@@H](c5ccccc5)N(C)C)[nH]4)ccc32)[nH]1)c1ccccc1 | 0.3 | > 100 | 2.1 | 0.87 |
| CCN(CC)[C@@H](C(=O)N1CCC[C@H]1c1ncc(-c2ccc3c(c2)O[C@@H](c2ccccc2)n2c-3cc3cc(-c4cnc([C@@H]5CCCN5C(=O)[C@@H](c5ccccc5)N(CC)CC)[nH]4)ccc32)[nH]1)c1ccccc1 | 0.27 | > 100 | 0.6 | 3.1 |
| CCN(CC)[C@@H](C(=O)N1CCC[C@H]1c1ncc(-c2ccc3c(c2)cc2n3[C@H](c3ccccc3)Oc3cc(-c4cnc([C@@H]5CCCN5C(=O)[C@@H](NC(=O)OC)C(C)C)[nH]4)ccc3-2)[nH]1)c1ccccc1 | 0.045 | 44 | – | 4 |
| COC(=O)N[C@@H](C)C(=O)N1CCC[C@H]1c1ncc(-c2ccc3c(c2)O[C@@H](c2ccccc2)n2c-3cc3cc(-c4cnc([C@@H]5CCCN5C(=O)[C@H](C)NC(=O)OC)[nH]4)ccc32)[nH]1 | 0.042 | > 100 | 6.4 | > 100 |
| CC[C@H](NC(=O)OC)C(=O)N1CCC[C@H]1c1ncc(-c2ccc3c(c2)O[C@@H](c2ccccc2)n2c-3cc3cc(-c4cnc([C@@H]5CCCN5C(=O)[C@H](CC)NC(=O)OC)[nH]4)ccc32)[nH]1 | 0.016 | > 100 | 1.6 | 65 |
| O=C([C@H]1CCCO1)N1CCC[C@H]1c1ncc(-c2ccc3c(c2)O[C@@H](c2ccccc2)n2c-3cc3cc(-c4cnc([C@@H]5CCCN5C(=O)[C@H]5CCCO5)[nH]4)ccc32)[nH]1 | 1 | > 100 | > 100 | > 100 |
| CC[C@H](C)[C@H](NC(=O)OC)C(=O)N1CCC[C@H]1c1ncc(-c2ccc3c(c2)O[C@@H](c2ccccc2)n2c-3cc3cc(-c4cnc([C@@H]5CCCN5C(=O)[C@@H](NC(=O)OC)[C@@H](C)CC)[nH]4)ccc32)[nH]1 | 0.011 | > 100 | 1.8 | > 100 |
| COC(=O)N[C@H](C(=O)N1CCC[C@H]1c1ncc(-c2ccc3c(c2)O[C@@H](c2ccccc2)n2c-3cc3cc(-c4cnc([C@@H]5CCCN5C(=O)[C@@H](NC(=O)OC)C5CCOCC5)[nH]4)ccc32)[nH]1)C(C)C | 0.06 | 11 | 0.6 | 9 |
| COC(=O)N[C@H](C(=O)N1CCC[C@H]1c1ncc(-c2ccc3c(c2)O[C@@H](c2ccccc2)n2c-3cc3cc(-c4cnc([C@@H]5CCCN5C(=O)[C@@H](NC(=O)OC)[C@@H](C)OC)[nH]4)ccc32)[nH]1)C(C)C | 0.039 | 54 | – | 35 |
| COCC[C@H](NC(=O)OC)C(=O)N1CCC[C@H]1c1ncc(-c2ccc3c(c2)O[C@@H](c2ccccc2)n2c-3cc3cc(-c4cnc([C@@H]5CCCN5C(=O)[C@H](CCOC)NC(=O)OC)[nH]4)ccc32)[nH]1 | 0.061 | 46 | 2.1 | 91 |
| COC(=O)NC1(C(=O)N2CCC[C@H]2c2ncc(-c3ccc4c(c3)O[C@@H](c3ccccc3)n3c-4cc4cc(-c5cnc([C@@H]6CCCN6C(=O)C6(NC(=O)OC)CCOCC6)[nH]5)ccc43)[nH]2)CCOCC1 | 1.4 | > 100 | > 100 | > 100 |
| COC(=O)N[C@@H](CC1CCOCC1)C(=O)N1CCC[C@H]1c1ncc(-c2ccc3c(c2)O[C@@H](c2ccccc2)n2c-3cc3cc(-c4cnc([C@@H]5CCCN5C(=O)[C@H](CC5CCOCC5)NC(=O)OC)[nH]4)ccc32)[nH]1 | 0.1 | 40 | 0.77 | 18 |
| COC(=O)N[C@H](C(=O)N1CCC[C@H]1c1ncc(-c2ccc3c(c2)O[C@@H](c2ccccc2)n2c-3cc3cc(-c4cnc([C@@H]5CCCN5C(=O)[C@@H](NC(=O)OC)C5CCCCC5)[nH]4)ccc32)[nH]1)C1CCCCC1 | 0.1 | > 100 | 11 | > 100 |
